Experimental data taken from PubChem BioAssay (NCI).
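GI50 is the concentration that inhibits growth by half. TGI: concentration producing complete growth inhibition.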

Key:
Assay in all cases: NCI tumour cell line growth inhibition, 384-well format
[1] = system: DU-145 prostate
[2] = system: HCT-15 colon
[3] = system: NCI-H23 lung
[4] = system: CCRF-CEM leukemia
[5] = system: MOLT-4 leukemia
[6] = system: MDA-MB-468 breast
[7] = system: SK-MEL-5 melanoma
[8] = system: SF-539 CNS
[9] = system: M14 melanoma
[10] = system: NCI-H522 lung
[11] = system: SNB-19 CNS
[12] = system: NCI-H322M lung
[13] = system: SNB-75 CNS
[14] = system: MCF7 breast
[15] = system: NCI-H226 lung
[16] = system: SN12C renal
[17] = system: KM12 colon
[18] = system: SK-MEL-2 melanoma
[19] = system: UACC-62 melanoma
[20] = system: HCC-2998 colon
[21] = system: COLO 205 colon
[22] = system: 786-0 renal
[23] = system: SF-295 CNS
[24] = system: OVCAR-8 ovarian
[25] = system: A498 renal
[26] = system: LOX IMVI melanoma
[27] = system: NCI/ADR-RES ovarian
[28] = system: RXF 393 renal

Work on `CC(C)NC(=O)OCc1c(COC(=O)NC(C)C)c(-c2ccc(Cl)c(Cl)c2)n2c1SCC2` yielded a GI50 [1] of 5.54 µM, a TGI [1] of 20.7 µM and a GI50 [2] of 5.97 µM. For the same molecule, the TGI [2] was 19.8 µM, the GI50 [3] was 1.83 µM and the TGI [3] was 4.26 µM. It also gave a GI50 [4] of 2.07 µM, a TGI [4] of 4.95 µM and a GI50 [5] of 1.1 µM. For the same molecule, the TGI [5] was 2.3 µM, the GI50 [6] was 0.0344 µM and the TGI [6] was 0.936 µM. It also gave a GI50 [7] of 4.33 µM, a TGI [7] of 17.8 µM and a GI50 [8] of 5.16 µM. The TGI [8] was 18.7 µM, the GI50 [9] was 3.75 µM and the TGI [9] was 14.1 µM. For the same molecule, the GI50 [10] was 2.09 µM, the TGI [10] was 13.8 µM and the GI50 [11] was 9.07 µM. The TGI [11] was 27.7 µM, the GI50 [12] was 7.6 µM and the TGI [12] was 21.7 µM. It also gave a GI50 [13] of 2.27 µM, a TGI [13] of 12.7 µM and a GI50 [14] of 4.21 µM. The TGI [14] was 27 µM, the GI50 [15] was 0.85 µM and the TGI [15] was 2.35 µM. The GI50 [16] was 3.88 µM, the TGI [16] was 14.1 µM and the GI50 [17] was 7.21 µM. It also gave a TGI [17] of 21.6 µM, a GI50 [18] of 1.83 µM and a TGI [18] of 4.49 µM. It also gave a GI50 [19] of 1.68 µM, a TGI [19] of 4.98 µM and a GI50 [20] of 0.687 µM. The TGI [20] was 14.7 µM, the GI50 [21] was 8.39 µM and the TGI [21] was 21.7 µM. The GI50 [22] was 4.31 µM, the TGI [22] was 15.8 µM and the GI50 [23] was 3.18 µM. The TGI [23] was 10.1 µM, the GI50 [24] was 5.97 µM and the TGI [24] was 19.1 µM. The GI50 [25] was 0.386 µM, the TGI [25] was 1.76 µM and the GI50 [26] was 1.84 µM. It also gave a TGI [26] of 13.6 µM, a GI50 [27] of 3 µM and a TGI [27] of 13.2 µM. The GI50 [28] was 2.64 µM.
